# What was measured:
# [1] = target: Platelet-activating factor receptor (Homo sapiens, UniProt P25105); test: biochemical; assay type: tissue-based; settings: platelet; further: in other assays of this panel Not Active means under 50% inhibition at 10 µM
# [2] = target: Cytochrome P450 2C19 (Homo sapiens, UniProt P33261); settings: bti-tn-5b1-4; further: in other assays of this panel Not Active means under 50% inhibition at 10 µM
# [3] = target: T1, Alpha-1B adrenergic receptor (Rattus norvegicus, UniProt P15823); test: DRUGMATRIX: Alpha-1B adrenergic receptor radioligand binding (ligand: prazosin); assay type: cell membranes, Wistar, Liver, Membrane; settings: Not Active = under 50% inhibition at 10 µM
# T1 sequence (P15823 whole entry): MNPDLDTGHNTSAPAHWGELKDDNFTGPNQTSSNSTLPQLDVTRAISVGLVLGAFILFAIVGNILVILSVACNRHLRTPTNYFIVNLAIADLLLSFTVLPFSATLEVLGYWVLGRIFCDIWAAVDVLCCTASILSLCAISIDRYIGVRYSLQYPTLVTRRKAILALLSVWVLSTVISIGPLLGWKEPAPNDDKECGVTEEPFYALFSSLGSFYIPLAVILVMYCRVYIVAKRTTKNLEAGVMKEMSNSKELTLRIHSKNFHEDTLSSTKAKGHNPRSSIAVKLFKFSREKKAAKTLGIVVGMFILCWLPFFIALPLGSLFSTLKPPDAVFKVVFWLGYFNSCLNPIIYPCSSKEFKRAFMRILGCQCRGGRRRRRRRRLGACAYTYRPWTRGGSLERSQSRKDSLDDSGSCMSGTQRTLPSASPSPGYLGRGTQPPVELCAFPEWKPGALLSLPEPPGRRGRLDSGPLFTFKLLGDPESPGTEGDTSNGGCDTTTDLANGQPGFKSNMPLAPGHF
# [4] = DRUGMATRIX: GABAA, Chloride Channel, TBOB radioligand binding (ligand: [3H] TBOB); assay type: cell membranes, Rattus norvegicus, Wistar, Cerebral cortex, Membrane; settings: Not Active = under 50% inhibition at 10 µM
# [5] = DRUGMATRIX: Calcium Channel Type L, Benzothiazepine radioligand binding (ligand: [3H] Diltiazem); assay type: cell membranes, Rattus norvegicus, Wistar, Brain, Membrane; settings: Not Active = under 50% inhibition at 10 µM
# [6] = target: Cytochrome P450 2D6 (Homo sapiens, UniProt P10635); settings: bti-tn-5b1-4; further: in other assays of this panel Not Active means under 50% inhibition at 10 µM
# [7] = target: T2, 3-hydroxy-3-methylglutaryl-coenzyme A reductase (Homo sapiens, UniProt P04035); design: species or system Escherichia coli;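 further: enzyme inhibition assay of HMG-CoA reductase using radiolabeled [14C]HMG-CoA as substrate; in other assays of this panel Not Active means under 50% inhibition at 10 µM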
# T2 sequence (P04035 whole entry): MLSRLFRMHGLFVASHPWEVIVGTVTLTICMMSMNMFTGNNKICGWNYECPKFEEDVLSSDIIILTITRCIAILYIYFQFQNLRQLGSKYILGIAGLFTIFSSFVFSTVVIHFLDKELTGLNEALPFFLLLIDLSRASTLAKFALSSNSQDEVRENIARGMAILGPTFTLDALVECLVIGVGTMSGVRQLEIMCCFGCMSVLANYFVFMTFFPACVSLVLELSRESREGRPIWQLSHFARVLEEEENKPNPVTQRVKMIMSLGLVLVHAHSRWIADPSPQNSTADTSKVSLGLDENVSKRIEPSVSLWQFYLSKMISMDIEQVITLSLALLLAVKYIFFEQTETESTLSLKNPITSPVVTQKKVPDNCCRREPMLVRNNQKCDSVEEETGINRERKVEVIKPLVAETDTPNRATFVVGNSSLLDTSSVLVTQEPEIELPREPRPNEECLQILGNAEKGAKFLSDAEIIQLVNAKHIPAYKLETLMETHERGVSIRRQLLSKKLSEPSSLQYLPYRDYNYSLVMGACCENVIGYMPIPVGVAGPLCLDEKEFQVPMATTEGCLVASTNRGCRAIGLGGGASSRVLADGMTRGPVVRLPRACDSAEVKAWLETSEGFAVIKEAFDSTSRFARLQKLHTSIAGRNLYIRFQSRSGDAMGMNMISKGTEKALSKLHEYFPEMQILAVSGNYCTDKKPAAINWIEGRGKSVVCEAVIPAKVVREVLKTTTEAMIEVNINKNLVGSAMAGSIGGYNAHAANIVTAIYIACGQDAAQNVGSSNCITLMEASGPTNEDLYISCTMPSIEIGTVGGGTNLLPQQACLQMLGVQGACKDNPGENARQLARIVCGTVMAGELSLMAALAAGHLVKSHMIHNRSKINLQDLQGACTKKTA
# Sequence of Platelet-activating factor receptor (P25105 whole entry): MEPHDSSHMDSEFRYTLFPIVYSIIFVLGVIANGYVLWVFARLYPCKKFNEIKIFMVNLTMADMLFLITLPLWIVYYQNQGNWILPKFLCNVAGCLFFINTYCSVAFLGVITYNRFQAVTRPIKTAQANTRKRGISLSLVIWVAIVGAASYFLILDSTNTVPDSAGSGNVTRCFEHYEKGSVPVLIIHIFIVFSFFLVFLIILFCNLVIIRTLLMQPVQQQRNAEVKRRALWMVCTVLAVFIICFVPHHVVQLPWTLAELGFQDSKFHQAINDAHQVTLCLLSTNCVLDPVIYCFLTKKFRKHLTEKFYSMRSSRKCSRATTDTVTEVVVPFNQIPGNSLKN
# Sequence of Cytochrome P450 2C19 (P33261 whole entry): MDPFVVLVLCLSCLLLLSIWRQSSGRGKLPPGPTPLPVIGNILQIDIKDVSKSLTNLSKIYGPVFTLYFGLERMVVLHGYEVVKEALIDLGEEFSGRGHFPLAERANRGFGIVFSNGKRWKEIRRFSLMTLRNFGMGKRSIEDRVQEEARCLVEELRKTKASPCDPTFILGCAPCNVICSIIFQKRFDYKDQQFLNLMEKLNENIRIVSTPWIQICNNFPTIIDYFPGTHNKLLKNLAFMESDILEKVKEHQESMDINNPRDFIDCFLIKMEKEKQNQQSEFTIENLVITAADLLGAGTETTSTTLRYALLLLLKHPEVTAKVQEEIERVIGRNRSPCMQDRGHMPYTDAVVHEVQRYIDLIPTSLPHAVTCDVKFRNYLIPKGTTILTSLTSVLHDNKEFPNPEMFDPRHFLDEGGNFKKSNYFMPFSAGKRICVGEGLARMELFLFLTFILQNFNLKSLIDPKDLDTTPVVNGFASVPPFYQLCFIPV
# Sequence of Cytochrome P450 2D6 (P10635 whole entry): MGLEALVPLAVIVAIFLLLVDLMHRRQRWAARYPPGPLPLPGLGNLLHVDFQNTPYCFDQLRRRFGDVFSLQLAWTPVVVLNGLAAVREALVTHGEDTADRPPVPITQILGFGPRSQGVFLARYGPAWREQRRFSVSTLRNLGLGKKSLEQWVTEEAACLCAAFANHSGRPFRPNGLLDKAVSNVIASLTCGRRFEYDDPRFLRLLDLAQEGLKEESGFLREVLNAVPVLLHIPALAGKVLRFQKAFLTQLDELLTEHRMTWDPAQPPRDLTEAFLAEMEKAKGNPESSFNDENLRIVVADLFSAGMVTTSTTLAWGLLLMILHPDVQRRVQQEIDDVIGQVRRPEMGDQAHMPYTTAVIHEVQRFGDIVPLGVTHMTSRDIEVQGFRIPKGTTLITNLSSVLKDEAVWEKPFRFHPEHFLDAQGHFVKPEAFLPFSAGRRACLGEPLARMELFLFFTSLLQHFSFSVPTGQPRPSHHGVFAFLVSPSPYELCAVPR
Structure (SMILES),IC50 [1],IC50 [2],Ki [2],IC50 [3],IC50 [4],Ki [4],IC50 [5],Ki [5],IC50 [6],Ki [6],IC50 [7],IC50 ([5]; read-out: IC50) [µM],Ki ([5]; read-out: Ki) [µM]
NC(=O)N1c2ccccc2C=Cc2ccccc21 [CARBAMAZEPINE],Not Active,Not Active,Not Active,Not Active,Not Active,Not Active,Not Active,Not Active,Not Active,Not Active,Not Active,,
CN(Cc1cnc2nc(N)nc(N)c2n1)c1ccc(C(=O)N[C@@H](CCC(=O)O)C(=O)O)cc1 [METHOTREXATE],Not Active,Not Active,Not Active,Not Active,Not Active,Not Active,Not Active,Not Active,Not Active,Not Active,Not Active,,
O=P1(N(CCCl)CCCl)NCCCO1 (centres undefined) [CYCLOPHOSPHAMIDE ANHYDROUS],Not Active,Not Active,Not Active,Not Active,Not Active,Not Active,Not Active,Not Active,Not Active,Not Active,Not Active,,
C[C@]12CCC(=O)C=C1CC[C@@H]1[C@@H]2[C@@H](O)C[C@@]2(C)[C@H]1CC[C@]2(O)C(=O)CO [HYDROCORTISONE],Not Active,Not Active,Not Active,Not Active,Not Active,Not Active,Not Active,Not Active,Not Active,Not Active,Not Active,,
Cc1cccc(Nc2ccccc2C(=O)O)c1C [MEFENAMIC ACID],Not Active,Not Active,Not Active,Not Active,Not Active,Not Active,Not Active,Not Active,Not Active,Not Active,Not Active,,
CCn1cc(C(=O)O)c(=O)c2cc(F)c(N3CCNCC3)nc21 [ENOXACIN],Not Active,Not Active,Not Active,Not Active,Not Active,Not Active,Not Active,Not Active,Not Active,Not Active,Not Active,,
Cc1c(N(C)CS(=O)(=O)[O-])c(=O)n(-c2ccccc2)n1C.[Na+] [DIPYRONE SODIUM],Not Active,Not Active,Not Active,Not Active,Not Active,Not Active,Not Active,Not Active,Not Active,Not Active,Not Active,,
C#C[C@]1(O)CC[C@H]2[C@@H]3CCC4=Cc5oncc5C[C@]4(C)[C@H]3CC[C@@]21C [DANAZOL],Not Active,Not Active,Not Active,Not Active,Not Active,Not Active,,,Not Active,Not Active,Not Active,14.6,13
CC(=O)O[C@]1(C(C)=O)CC[C@H]2[C@@H]3C=C(C)C4=CC(=O)CC[C@]4(C)[C@H]3CC[C@@]21C [MEGESTROL ACETATE],Not Active,Not Active,Not Active,Not Active,Not Active,Not Active,Not Active,Not Active,Not Active,Not Active,Not Active,,
CCOC(=O)n1ccn(C)c1=S [CARBIMAZOLE],Not Active,Not Active,Not Active,Not Active,Not Active,Not Active,Not Active,Not Active,Not Active,Not Active,Not Active,,
NC[C@H]1O[C@H](O[C@H]2[C@H](O)[C@@H](O[C@H]3O[C@H](CO)[C@@H](O)[C@H](N)[C@H]3O)[C@H](N)C[C@@H]2N)[C@H](O)[C@@H](O)[C@@H]1O [KANAMYCIN],Not Active,Not Active,Not Active,Not Active,Not Active,Not Active,Not Active,Not Active,Not Active,Not Active,Not Active,,
COc1cc(CNC(=O)CCCC/C=C/C(C)C)ccc1O [CAPSAICIN],Not Active,Not Active,Not Active,Not Active,Not Active,Not Active,Not Active,Not Active,Not Active,Not Active,Not Active,,
C[C@H](C(=O)O)c1cccc(C(=O)c2ccccc2)c1 [DEXKETOPROFEN],Not Active,Not Active,Not Active,Not Active,Not Active,Not Active,Not Active,Not Active,Not Active,Not Active,Not Active,,
NC[C@@H]1O[C@H](O[C@H]2[C@@H](O)[C@H](O[C@@H]3[C@@H](O)[C@H](N)C[C@H](N)[C@H]3O[C@H]3O[C@H](CN)[C@@H](O)[C@H](O)[C@H]3N)O[C@@H]2CO)[C@H](N)[C@@H](O)[C@@H]1O [FRAMYCETIN],Not Active,Not Active,Not Active,Not Active,Not Active,Not Active,Not Active,Not Active,Not Active,Not Active,Not Active,,
C[C@]12C/C(=C/O)C(=O)C[C@@H]1CC[C@@H]1[C@@H]2CC[C@@]2(C)[C@H]1CC[C@]2(C)O [OXYMETHOLONE],Not Active,Not Active,Not Active,Not Active,Not Active,Not Active,Not Active,Not Active,Not Active,Not Active,Not Active,,
CCOC(=O)[C@H](CCc1ccccc1)N[C@@H](C)C(=O)N1Cc2ccccc2C[C@H]1C(=O)O,Not Active,Not Active,Not Active,Not Active,Not Active,Not Active,Not Active,Not Active,Not Active,Not Active,Not Active,,
C=C1/C(=C\C=C2/CCC[C@]3(C)[C@@H]([C@H](C)CCCC(C)C)CC[C@@H]23)C[C@@H](O)C[C@@H]1O [ALFACALCIDOL],Not Active,Not Active,Not Active,Not Active,Not Active,Not Active,Not Active,Not Active,Not Active,Not Active,Not Active,,
CCCCC1C(=O)N(c2ccccc2)N(c2ccccc2)C1=O [PHENYLBUTAZONE],Not Active,Not Active,Not Active,Not Active,Not Active,Not Active,Not Active,Not Active,Not Active,Not Active,Not Active,,
[N-]=[N+]=CC(=O)OC[C@H](N)C(=O)O [AZASERINE],Not Active,Not Active,Not Active,Not Active,Not Active,Not Active,Not Active,Not Active,Not Active,Not Active,Not Active,,
